Reference: patent US8097752B2, “Antiprotozoal ring-substituted phospholipids” (priority 2002, dated 2012)
Where a name gives a salt, the structure may show the parent alone.

Legend:
[1] = system: promastigote forms of Leishmania infantum; assay: In vitro antileishmanial activity in promastigote cultures (MTT), L. infantum; assay type: cell-based, Leishmania infantum MHOM/TN/80/IPT1/LEM 235; conditions: promastigotes, 72 h incubation, mean ± SEM, n = 3-4 (each run in duplicate), read-out: IC50 (μM) L. infantum MON 235
Procedure: (§1) Determination of in Vitro Antileishmanial Activity in Promastigote Cultures.
(§2) The effect of the phospholipids according to the present invention against the promastigote forms of Leishmania donovani and Leishmania infantum was evaluated using an MTT (3-(4,5-dimethylthiazol-2yl)-2,5-diphenyltetrazolium bromide)-based enzymatic method as a marker of cell viability and was compared with that of the ether phospholipid hexadecylphosphocholine (Miltefosine). Thus, promastigotes of Leishmania infantum MHOM/TN/80/IPT1/LEM 235 and Leishmania donovani MHOM/IN/80/DD8/LEM 703, were grown in RPMI 1640 supplemented with 10% FCS, L. glutamine and antibiotics, at 26° C. All new compounds were dissolved in DMSO to a final concentration of 9.625 mM and linear 3-fold dilutions were done in the culture medium. 25 μL of promastigote culture at 5×10^5 cells/mL were cultured in a 96-well flat-bottom plate (Costar 3696), and incubated with 25 μL of different drug concentrations at 26° C. After 72 h, 10 μL of 5 mg/mL MTT in PBS (SIGMA M2128) were added and incubation was continued for 3 h. The reaction was stopped by the addition of 50 μL of 50% isopropanol, 10% SDS under gentle shacking for 30 min. Absorbance was measured at 550 nm with reference at 620 nm in a TRITURUS microplate reader.

[2] = system: promastigote forms of Leishmania donovani; assay: In vitro antileishmanial activity in promastigote cultures (MTT), L. donovani; assay type: cell-based, Leishmania donovani MHOM/IN/80/DD8/LEM 703; conditions: promastigotes, 72 h incubation, mean ± SEM, n = 3-4 (each run in duplicate), read-out: IC50 (μM) L. donovani MON 703
Procedure: as §1, §2

[3] = system: THP1 cells; assay: Assessment of cytotoxicity in THP1 monocyte cells (SYBR-14/PI staining, flow cytometry); conditions: THP1 monocytes infected with L. donovani and L. infantum; 72 hours; concentrations as low as 50 μM
Procedure: Thus, we proceeded to assess the cytotoxicity of four inventive compounds as well as miltefosine in the human monocytic cell line THP1.
Assessment of Cytotoxicity in THP1 Monocyte Cells.
As a quantitative measurement of the cell damage after incubation with different concentrations of drugs dual staining with SYBR-14 and PI (Molecular Probes, The Netherlands) was used followed by flow cytometry.
THP1 cell cultures were incubated at 1×10^6 cells/ml with different concentrations of the compounds ranging from 50 to 1.56 μM. After an incubation period of 72 hours approximately 4×10^6 cells were suspended in labeling buffer (10 mM HEPES, 150 mM NaCl, 10% BSA, pH 7.4) and 10 μg/ml PI and 0.1 mg/ml SYBR-14 were added. The cultures were incubated at 37° C. for 30 minutes before analysis by flow cytometry.
Cell samples were analyzed on an Epics Elite model flow cytometer (Coulter, Miami, Fla.). The green fluorescence of SYBR-14 and the red fluorescence of PI were excited at 488 nm. At least 10,000 cells were analyzed per sample and each staining experiment was repeated twice. Data analysis was performed on fluorescence intensities that excluded cell autofluorescence and cell debris.
THP1 monocytes infected with the appropriate Leishmania species were used for the evaluation of the leishmanicidal activity of the compounds against the intracellular amastigote stages of the parasite.

Row | Structure (SMILES) | IC50 [1] [µM] | IC50 [2] [µM] | cytotoxic effect on THP1 cells (percentage of live THP1 cells, FIG. 1) [3]
1 | CCCCCCCCCCCC=C1CCC(OCCOP(=O)([O-])OCC[N+](C)(C)C)CC1 (stereo not drawn) [Example 1, 1-{2-{[(4-Dodecylidenecyclohexyloxy)ethyloxy]hydroxyphosphinyloxy}ethyl}-N,N,N-trimethylammonium inner salt] | 3.25 ± 0.65 | 7.08 ± 1.2 | 
2 | CCCCCCCCCCCC=C1CCC(OCCOP(=O)([O-])OCC[N+]2(C)CCCCC2)CC1 (stereo not drawn) [Example 2, 1-{2-{[(4-Dodecylidenecyclohexyloxy)ethyloxy]hydroxyphosphinyloxy}ethyl}-1-methylpiperidinium inner salt] | 23.1 ± 3.6 | 22 ± 3.25 | 
3 | CCCCCCCCCCCC=C1CCC(OCCOP(=O)([O-])OCC[N+]2(C)CCOCC2)CC1 (stereo not drawn) [Example 3, 1-{2-{[(4-Dodecylidenecyclohexyloxy)ethyloxy]hydroxyphosphinyloxy}ethyl}-1-methylmorpholinium inner salt] | 16.5 ± 1.8 | 50.7 ± 3.6 | 
4 | CCCCCCCCCCCCCC=C1CCC(OCCOP(=O)([O-])OCC[N+](C)(C)C)CC1 (stereo not drawn) [Example 4, 1-{2-{[(4-Tetradecylidenecyclohexyloxy)ethyloxy]hydroxyphosphinyloxy}ethyl}-N,N,N-trimethylammonium inner salt] | 5.25 ± 0.45 | 3.91 ± 0.21 | 
5 | CCCCCCCCCCCCCC=C1CCC(OCCOP(=O)([O-])OCC[N+]2(C)CCCCC2)CC1 (stereo not drawn) [Example 5, 1-{2-{[(4-Tetradecylidenecyclohexyloxy)ethyloxy]hydroxyphosphinyloxy}ethyl}-1-methylpiperidinium inner salt] | 11.4 ± 2.4 | 29.7 ± 3.6 | 
6 | CCCCCCCCCCCCCC=C1CCC(OCCOP(=O)([O-])OCC[N+]2(C)CCOCC2)CC1 (stereo not drawn) [Example 6, 1-{2-{[(4-Tetradecylidenecyclohexyloxy)ethyloxy]hydroxyphosphinyloxy}ethyl}-1-methylmorpholinium inner salt] | 15.5 ± 1.8 | 38.6 ± 3.2 | 
7 | CCCCCCCCCCCCCCCC=C1CCC(OCCOP(=O)([O-])OCC[N+](C)(C)C)CC1 (stereo not drawn) [Example 7, 1-{2-{[(4-Hexadecylidenecyclohexyloxy)ethyloxy]hydroxyphosphinyloxy}ethyl}-N,N,N-trimethylammonium inner salt] | 21.2 ± 2.6 | 45.1 ± 7.2 | 
8 | CCCCCCCCCCCCCCCC=C1CCC(OCCOP(=O)([O-])OCC[N+]2(C)CCCCC2)CC1 (stereo not drawn) [Example 8, 1-{2-{[(4-Hexadecylidenecyclohexyloxy)ethyloxy]hydroxyphosphinyloxy}ethyl}-1-methylpiperidinium inner salt] | 6.5 ± 1.7 | 22 ± 1.99 | 
9 | CCCCCCCCCCCCCCCC=C1CCC(OCCOP(=O)([O-])OCC[N+]2(C)CCOCC2)CC1 (stereo not drawn) [Example 9, 1-{2-{[(4-Hexadecylidenecyclohexyloxy)ethyloxy]hydroxyphosphinyloxy}ethyl}-1-methylmorpholinium inner salt] | 3.7 ± 0.71 | 16.2 ± 2.29 | 
10 | C[N+](C)(C)CCOP(=O)([O-])OCCCCC=C1CCCCC1 [Example 10, 1-{2-[(5-Cyclohexylidenepentyloxy)hydroxyphosphinyloxy]ethyl}-N,N,N-trimethylammonium inner salt] | > 100 | > 100 | 
11 | C[N+]1(CCOP(=O)([O-])OCCCCC=C2CCCCC2)CCCCC1 [Example 11, 1-{2-[(5-Cyclohexylidenepentyloxy)hydroxyphosphinyloxy]ethyl}-1-methylpiperidinium inner salt] | > 100 | > 100 | 
12 | C[N+]1(CCOP(=O)([O-])OCCCCC=C2CCCCC2)CCOCC1 [Example 12, 1-{2-[(5-Cyclohexylidenepentyloxy)hydroxyphosphinyloxy]ethyl}-1-methylmorpholinium inner salt] | > 100 | > 100 | 
13 | C[N+](C)(C)CCOP(=O)([O-])OCCCCCCCCCCC=C1CCCCC1 [Example 13, 1-{2-[(11-Cyclohexylideneundecyloxy)hydroxyphosphinyloxy]ethyl}-N,N,N-trimethylammonium inner salt] | 5.2 ± 1.5 | 2.4 ± 0.6 | not observed
14 | C[N+]1(CCOP(=O)([O-])OCCCCCCCCCCC=C2CCCCC2)CCCCC1 [Example 14, 1-{2-[(11-Cyclohexylideneundecyloxy)hydroxyphosphinyloxy]ethyl}-1-methylpiperidinium inner salt] | 47.6 ± 7.33 | 8.7 ± 1 | 
15 | C[N+]1(CCOP(=O)([O-])OCCCCCCCCCCC=C2CCCCC2)CCOCC1 [Example 15, 1-{2-[(11-Cyclohexylideneundecyloxy)hydroxyphosphinyloxy]ethyl}-1-methylmorpholinium inner salt] | 22.8 ± 1.7 | 8.25 ± 0.25 | 
16 | C[N+](C)(C)CCOP(=O)([O-])OCCCCC=C1C2CC3CC(C2)CC1C3 [Example 16, 1-{2-[(5-Adamantylidenepentyloxy)hydroxyphosphinyloxy]ethyl}-N,N,N-trimethylammonium inner salt] | > 100 | 4.99 ± 1.5 | 
17 | C[N+]1(CCOP(=O)([O-])OCCCCC=C2C3CC4CC(C3)CC2C4)CCCCC1 [Example 17, 1-{2-[(5-Adamantylidenepentyloxy)hydroxyphosphinyloxy]ethyl}-1-methylpiperidinium inner salt] | > 100 | > 100 | 
18 | C[N+]1(CCOP(=O)([O-])OCCCCC=C2C3CC4CC(C3)CC2C4)CCOCC1 [Example 18, 1-{2-[(5-Adamantylidenepentyloxy)hydroxyphosphinyloxy]ethyl}-1-methylmorpholinium inner salt] | > 100 | 46.9 ± 8.7 | 
19 | C[N+](C)(C)CCOP(=O)([O-])OCCCCCCCCCCC=C1C2CC3CC(C2)CC1C3 [Example 19, 1-{2-[(11-Adamantylideneundecyloxy)hydroxyphosphinyloxy]ethyl}-N,N,N-trimethylammonium inner salt] | 6.75 ± 2.4 | 3.16 ± 0.63 | not observed
20 | C[N+]1(CCOP(=O)([O-])OCCCCCCCCCCC=C2C3CC4CC(C3)CC2C4)CCCCC1 [Example 20, 1-{2-[(11-Adamantylideneundecyloxy)hydroxyphosphinyloxy]ethyl}-1-methylpiperidinium inner salt] | 22.6 ± 3.4 | 5.41 ± 1.14 | 
21 | C[N+]1(CCOP(=O)([O-])OCCCCCCCCCCC=C2C3CC4CC(C3)CC2C4)CCOCC1 [Example 21, 1-{2-[(11-Adamantylideneundecyloxy)hydroxyphosphinyloxy]ethyl}-1-methylmorpholinium inner salt] | 6.64 ± 1.2 | 5.09 ± 1.86 | 
22 | CCCCCCCCCCCCC1CCC(OCCOP(=O)([O-])OCC[N+](C)(C)C)CC1 (stereo not drawn) [Example 26, 1-{2-{[(4-Dodecylcyclohexyloxy)ethyloxy]hydroxyphosphinyloxy}ethyl}-N,N,N-trimethylammonium inner salt] | 5.65 ± 1.93 | 9.49 ± 1.4 | 
23 | CCCCCCCCCCCCCCC1CCC(OCCOP(=O)([O-])OCC[N+](C)(C)C)CC1 (stereo not drawn) [Example 27, 1-{2-{[(4-Tetradecylcyclohexyloxy)ethyloxy]hydroxyphosphinyloxy}ethyl}-N,N,N-trimethylammonium inner salt] | 23.3 ± 3.5 | 23.7 ± 4.4 | 
24 | C[N+](C)(C)CCOP(=O)([O-])OCCCCCCCCCCCC1CCCCC1 [Example 28, 1-{2-[(11-Cyclohexylundecyloxy)hydroxyphosphinyloxy]ethyl}-N,N,N-trimethylammonium inner salt] | 8.4 ± 0.8 | 10.3 ± 1.3 | 
25 | C[N+](C)(C)CCOP(=O)([O-])OCCCCCC12CC3CC(CC(C3)C1)C2 [Example 29, 1-{2-[(5-Adamantylpentyloxy)hydroxyphosphinyloxy]ethyl}-N,N,N-trimethylammonium inner salt] | > 100 | 4.02 ± 2.3 | 
26 | C[N+](C)(C)CCOP(=O)([O-])OCCCCCCCCCCCC12CC3CC(CC(C3)C1)C2 [Example 30, 1-{2-[(11-Adamantylundecyloxy)hydroxyphosphinyloxy]ethyl}-N,N,N-trimethylammonium inner salt] | 5.97 ± 1.06 | 2.88 ± 0.72 | 
